Reference: ChEMBL document CHEMBL1137454, “Natural bromophenols from the marine red alga Polysiphonia urceolata (Rhodomelaceae): structural elucidation and DPPH radical-scavenging activity” (Bioorg Med Chem, 2007)

Experiment: DPPH radical scavenging activity relative to control
Assay type: functional

Compound | IC50 [µM]
O=C(O)C(Cc1cc(O)c(O)c(Br)c1)c1cc(Br)c(O)c(Br)c1 (stereo not given) | 21.9
Cc1cc(C(C)(C)C)c(O)c(C(C)(C)C)c1 [BUTYLATED HYDROXYTOLUENE] | 83.8

These reach a lower IC50. Values come first.

IC50 [µM] | Compound
9.67 | CC(=O)/C=C/c1cc(O)c(O)c(Br)c1
16.1 | CCCCOC(=O)Cc1cc(Br)c(O)c(Br)c1
19.6 | Oc1cc(CCc2cc(O)c(O)c(Br)c2)cc(Br)c1O
